Test results as given in PubChem BioAssay (NCI).
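Exposure lasted 48 hours, with cells grown in 96-well plates and compounds tested at five concentrations. TGI is the concentration that stops growth completely.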

Assays:
Assay in all cases: NCI anticancer screen, dose series, 48 h
OVCAR-8 ovarian = test system: OVCAR-8 ovarian
HL-60(TB) leukemia = test system: HL-60(TB) leukemia
RXF 393 renal = test system: RXF 393 renal
EKVX NSCLC = test system: EKVX NSCLC
NCI/ADR-RES ovarian = test system: NCI/ADR-RES ovarian
CAKI-1 renal = test system: CAKI-1 renal
IGROV1 ovarian = test system: IGROV1 ovarian
COLO 205 colon = test system: COLO 205 colon
SK-OV-3 ovarian = test system: SK-OV-3 ovarian
A498 renal = test system: A498 renal
SF-539 CNS = test system: SF-539 CNS
UACC-257 melanoma = test system: UACC-257 melanoma
HS 578T breast = test system: HS 578T breast
PC-3 prostate = test system: PC-3 prostate
HOP-62 NSCLC = test system: HOP-62 NSCLC
KM12 colon = test system: KM12 colon
NCI-H226 lung = test system: NCI-H226 lung
MOLT-4 leukemia = test system: MOLT-4 leukemia
SR leukemia = test system: SR leukemia

| Compound | TGI (OVCAR-8 ovarian) | TGI (HL-60(TB) leukemia) | TGI (RXF 393 renal) | TGI (EKVX NSCLC) | TGI (NCI/ADR-RES ovarian) | TGI (CAKI-1 renal) | TGI (IGROV1 ovarian) | TGI (COLO 205 colon) | TGI (SK-OV-3 ovarian) | TGI (A498 renal) | TGI (SF-539 CNS) | TGI (UACC-257 melanoma) | TGI (HS 578T breast) | TGI (PC-3 prostate) | TGI (HOP-62 NSCLC) | TGI (KM12 colon) | TGI (NCI-H226 lung) | TGI (MOLT-4 leukemia) | TGI (SR leukemia) |
| --- | --- | --- | --- | --- | --- | --- | --- | --- | --- | --- | --- | --- | --- | --- | --- | --- | --- | --- | --- |
| CC(C)C1OC(N)=C(C#N)C1(C#N)C#N (centres undefined) | > 100 µM | 35.5 µM | > 100 µM | > 100 µM | > 100 µM | 13.5 µM | > 100 µM | > 100 µM | > 100 µM | > 100 µM | > 100 µM | 96.4 µM | > 100 µM | > 100 µM | > 100 µM | > 100 µM | > 100 µM |  |  |
| c1ccc2c(c1)NCCC(=NC1CCCCC1)N2 | > 100 µM | > 100 µM | > 100 µM | > 100 µM | > 100 µM | > 100 µM | > 100 µM | > 100 µM | > 100 µM | > 100 µM |  | > 100 µM | > 100 µM | > 100 µM | > 100 µM | > 100 µM | > 100 µM | > 100 µM |  |
| FC(F)(F)c1ccc(Cc2nc3cc4ccccc4cc3[nH]2)cc1 | > 100 µM | > 100 µM | > 100 µM | > 100 µM | > 100 µM | > 100 µM | > 100 µM | > 100 µM |  | > 100 µM | > 100 µM | > 100 µM | > 100 µM | > 100 µM | > 100 µM | > 100 µM | > 100 µM |  |  |
| CCOc1ccc2nc3nc(=O)[nH]c(C)c3c(NCCCN(CC)CC)c2c1 | > 100 µM | > 100 µM | > 100 µM | > 100 µM | > 100 µM | > 100 µM | > 100 µM | > 100 µM | > 100 µM | > 100 µM | > 100 µM | > 100 µM | > 100 µM | > 100 µM | > 100 µM | > 100 µM | > 100 µM | > 100 µM |  |
| Cc1cc(O)c2c(c1O)C(=O)c1cccc(O)c1C2=O | > 100 µM | > 100 µM | > 100 µM | > 100 µM | > 100 µM | > 100 µM | > 100 µM |  | > 100 µM |  | > 100 µM | > 100 µM | > 100 µM | > 100 µM | > 100 µM | > 100 µM | > 100 µM |  |  |
| CC1(C)CC(O)C2=C(O1)C(=O)c1ncccc1C2=O (centres undefined) | 9.34 µM | 4.15 µM | 12.3 µM | 6.76 µM |  | 4.45 µM | 6.14 µM | 4.89 µM | 27.4 µM | 18.6 µM | 3.28 µM | 3.19 µM | 6.56 µM | 9.57 µM | 3.38 µM | 8.17 µM | 3.74 µM | 4.55 µM | > 19.8 µM |
| Cc1ccc2c(=O)cc(Cc3cccs3)[nH]c2n1 | > 100 µM | > 100 µM | > 100 µM | > 100 µM | > 100 µM | > 100 µM | > 100 µM | > 100 µM | > 100 µM |  |  | > 100 µM | > 100 µM | > 100 µM | > 100 µM | > 100 µM | > 100 µM | > 100 µM |  |
| C=CCNC(=S)N=Nc1c(O)n(CN2CCOCC2)c2ccc([N+](=O)[O-])cc12 | > 100 µM | > 100 µM | > 100 µM | > 100 µM | > 100 µM | > 100 µM | > 100 µM | > 100 µM | > 100 µM | 65.6 µM | > 100 µM | > 100 µM | > 100 µM | > 100 µM | > 100 µM | > 100 µM | > 100 µM | > 100 µM |  |
| CC(C)(C)OC(=O)N[C@H]1CC(O)c2ccccc2N(CC(=O)O)C1=O (some centres undefined) | > 100 µM | > 100 µM | > 100 µM | > 100 µM |  | > 100 µM | > 100 µM | > 100 µM | > 100 µM |  | > 100 µM | > 100 µM |  |  | > 100 µM | > 100 µM | > 100 µM | > 100 µM | > 100 µM |
| CCN(CC)Cc1cc(Nc2c3ccccc3nc3c2[nH]c2ccccc23)cc(CN(CC)CC)c1O | 2.89 µM | > 100 µM | 1.25 µM | 3.12 µM |  | 4.26 µM | 3.29 µM | 1.74 µM | 17 µM | 2.89 µM | 2.29 µM | 2.86 µM | 4.71 µM | 2.75 µM | 2.26 µM | 10.6 µM | 6.01 µM |  |  |
| N#CC(N)c1ccc(OCCCCCCCCCCOc2ccc(C(N)C#N)cc2)cc1 (centres undefined) | > 100 µM | > 100 µM | > 100 µM | > 100 µM | > 100 µM | > 100 µM | > 100 µM | > 100 µM | > 100 µM | > 100 µM | > 100 µM | > 100 µM | > 100 µM | > 100 µM |  | > 100 µM | > 100 µM | > 100 µM |  |
| O=C1C(C(O)(C(F)(F)Cl)C(F)(F)Cl)CCCC1C(O)(C(F)(F)Cl)C(F)(F)Cl (centres undefined) | > 10 µM |  | > 10 µM | > 10 µM | > 10 µM | > 10 µM | > 10 µM | > 10 µM | > 10 µM | > 10 µM | > 10 µM | > 10 µM | > 10 µM | > 10 µM | > 10 µM | > 10 µM | > 10 µM |  |  |
| CC1(C)CC(=O)C(/C=N/C(N)=S)=C(O)C1 | > 100 µM | > 100 µM | > 100 µM | > 100 µM | > 100 µM | > 100 µM | > 100 µM | > 100 µM | > 100 µM |  | > 100 µM | > 100 µM | > 100 µM | > 100 µM | > 100 µM | > 100 µM | > 100 µM | > 100 µM |  |
| COc1ccc(NC(=S)N/N=C\c2ccc(NC(C)=O)cc2)cc1 |  | > 100 µM |  | > 100 µM |  | > 100 µM | > 100 µM | > 100 µM | > 100 µM |  |  | > 100 µM | > 100 µM | > 100 µM | > 100 µM | > 100 µM |  | > 100 µM | > 100 µM |
